Here are results for twelve compounds from PubChem BioAssay AID328 (DTP/NCI, 2004).

The test system of the assay is BDF1 mice, P388 leukemia ip, median survival T/C. The assay is described as follows: NCI In Vivo Anticancer Drug Screen. Data for tumor model P388 Leukemia (intraperitoneal) in B6D2F1 (BDF1) mice. The settings on record: endpoint: median survival time, higher = longer survival. Put shortly:
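Compound-treated tumour-bearing mice were compared with vehicle-treated controls. Survival was recorded, and the value is the treated-group measurement divided by the control-group measurement (T/C).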

Setting [1] is: dose: 12.5 mg/kg/injection, schedule: Q01DX009 (ip), vehicle: water.
Setting [2] is: dose: 12.5 mg/kg/injection, schedule: Q04DX003 (ip), vehicle: water.
The mark [3] stands for this setting: dose: 25.0 mg/kg/injection, schedule: Q04DX003 (ip), vehicle: water.
Where [4] appears, read: dose: 50.0 mg/kg/injection, schedule: Q04DX003 (ip), vehicle: water.

Each structure is given as a SMILES string. “And” between values parts separate entries of the source, which are not always exact repeats. Equal entries are not always repeated. Toxic doses and inconclusive results are not listed.

Take `O=NN(CCF)C(=O)NC1CCCCC1`: the T/C (dose: 1.0 mg/kg/injection, schedule: Q04DX003 (ip), vehicle: saline with Tween-80) was 90 % of control; the T/C (dose: 2.0 mg/kg/injection, schedule: Q04DX003 (ip), vehicle: saline with Tween-80) is 105 % of control; the T/C (dose: 4.0 mg/kg/injection, schedule: Q04DX003 (ip), vehicle: saline with Tween-80) is 120 % of control; the T/C (dose: 6.25 mg/kg/injection, schedule: Q01DX009 (ip), vehicle: saline with Tween-80) was 217 % of control; the T/C (dose: 12.5 mg/kg/injection, schedule: Q01DX009 (ip), vehicle: saline with Tween-80) was 260 % of control; the T/C (dose: 16.5 mg/kg/injection, schedule: Q04DX003 (ip), vehicle: saline with Tween-80) was 272 % of control. The T/C is 121 % of control (dose: 25.0 mg/kg/injection, schedule: Q01DX009 (ip), vehicle: saline with Tween-80); 95 % of control (dose: 25.0 mg/kg/injection, schedule: Q04DX003 (ip), vehicle: saline with Tween-80); 95 % of control (dose: 37.5 mg/kg/injection, schedule: Q04DX003 (ip), vehicle: saline with Tween-80).
With `CCCSc1ccc([N+](=O)[O-])cc1`, the T/C (dose: 200.0 mg/kg/injection, schedule: Q04DX002 (ip), vehicle: saline with Tween-80) was 93 % of control and the T/C (dose: 400.0 mg/kg/injection, schedule: Q04DX002 (ip), vehicle: saline with Tween-80) was 101 % of control.
As to `O=c1cc(-c2ccccc2)nc2c(Cl)cc(Cl)cn12`, the T/C is 89 % of control (dose: 100.0 mg/kg/injection, schedule: Q04DX003 (ip), vehicle: Klucel (hydroxypropylcellulose) (HPC)); 100 % of control (dose: 200.0 mg/kg/injection, schedule: Q04DX003 (ip), vehicle: Klucel (hydroxypropylcellulose) (HPC)); 96 % of control (dose: 400.0 mg/kg/injection, schedule: Q04DX003 (ip), vehicle: Klucel (hydroxypropylcellulose) (HPC)).
For `CN(C)CCNC1=CC(=O)c2ccccc2C1=O`, the T/C is, setting by setting: under setting [1], 91 % of control; under setting [2], 107 % of control; (dose: 25.0 mg/kg/injection, schedule: Q01DX009 (ip), vehicle: water) 102 % of control; under setting [3], 100 % of control; (dose: 50.0 mg/kg/injection, schedule: Q01DX009 (ip), vehicle: water) 100 % of control; under setting [4], 100 % of control. In addition, the T/C was 98 % of control (dose: 100.0 mg/kg/injection, schedule: Q01DX009 (ip), vehicle: water); 98 % of control (dose: 100.0 mg/kg/injection, schedule: Q04DX003 (ip), vehicle: water); 96 % of control and 105 % of control (dose: 200.0 mg/kg/injection, schedule: Q01DX009 (ip), vehicle: water).
For the compound `O=S1(=O)CCN(C2CCCCCCC2)CC1`, the T/C runs as follows: (dose: 50.0 mg/kg/injection, schedule: Q01DX009 (ip), vehicle: Klucel (hydroxypropylcellulose) (HPC)) 115 % of control; (dose: 100.0 mg/kg/injection, schedule: Q01DX009 (ip), vehicle: Klucel (hydroxypropylcellulose) (HPC)) 116 % of control; (dose: 200.0 mg/kg/injection, schedule: Q01DX009 (ip), vehicle: Klucel (hydroxypropylcellulose) (HPC)) 104 % of control.
With `NC(CO)Cc1ccccc1` (configuration not stated), the T/C was 106 % of control (dose: 12.5 mg/kg/injection, schedule: Q01DX009 (ip), vehicle: Klucel (hydroxypropylcellulose) (HPC)) and 91 % of control (dose: 25.0 mg/kg/injection, schedule: Q01DX009 (ip), vehicle: Klucel (hydroxypropylcellulose) (HPC)).
Consider `O=C(NC(=O)c1c(F)cccc1F)Nc1nc2c(Cl)cccc2s1`, for which the T/C runs as follows: (dose: 50.0 mg/kg/injection, schedule: Q01DX009 (ip), vehicle: saline with Tween-80) 93 % of control; (dose: 100.0 mg/kg/injection, schedule: Q01DX009 (ip), vehicle: saline with Tween-80) 93 % of control; (dose: 200.0 mg/kg/injection, schedule: Q01DX009 (ip), vehicle: saline with Tween-80) 94 % of control.
As for `Brc1ccc2c(c1)-c1ccccc1C1=NCCN12`, the T/C was 95 % of control (dose: 2.5 mg/kg/injection, schedule: Q01DX009 (ip), vehicle: Klucel (hydroxypropylcellulose) (HPC)); 104 % of control (dose: 5.0 mg/kg/injection, schedule: Q01DX009 (ip), vehicle: Klucel (hydroxypropylcellulose) (HPC)); 100 % of control (dose: 10.0 mg/kg/injection, schedule: Q01DX009 (ip), vehicle: Klucel (hydroxypropylcellulose) (HPC)); 95 % of control (dose: 20.0 mg/kg/injection, schedule: Q01DX009 (ip), vehicle: Klucel (hydroxypropylcellulose) (HPC)).
Take `O=C(CBr)c1ccc(F)cc1`: the T/C was 110 % of control (dose: 0.78 mg/kg/injection, schedule: Q01DX009 (ip), vehicle: Klucel (hydroxypropylcellulose) (HPC)); 110 % of control (dose: 1.56 mg/kg/injection, schedule: Q01DX009 (ip), vehicle: Klucel (hydroxypropylcellulose) (HPC)); 112 % of control (dose: 3.12 mg/kg/injection, schedule: Q01DX009 (ip), vehicle: Klucel (hydroxypropylcellulose) (HPC)); 118 % of control (dose: 6.25 mg/kg/injection, schedule: Q01DX009 (ip), vehicle: Klucel (hydroxypropylcellulose) (HPC)).
On to `O=C(O)CSc1cc(-c2ccc(Cl)cc2)s[s+]1`, for which the T/C (dose: 1.56 mg/kg/injection, schedule: Q01DX009 (ip), vehicle: water) was 104 % of control; the T/C (dose: 2.0 mg/kg/injection, schedule: Q04DX003 (ip), vehicle: water) is 100 % of control; the T/C (dose: 3.12 mg/kg/injection, schedule: Q01DX009 (ip), vehicle: water) was 115 % of control; the T/C (dose: 4.0 mg/kg/injection, schedule: Q04DX003 (ip), vehicle: water) was 112 % of control; the T/C (dose: 6.25 mg/kg/injection, schedule: Q01DX009 (ip), vehicle: water) was 112 % of control; the T/C (dose: 6.25 mg/kg/injection, schedule: Q04DX003 (ip), vehicle: water) is 117 % of control. Further, the T/C (dose: 8.0 mg/kg/injection, schedule: Q04DX003 (ip), vehicle: water) was 100 % of control; the T/C under setting [1] is 107 % of control; the T/C under setting [2] is 100 % of control; the T/C (dose: 16.0 mg/kg/injection, schedule: Q04DX003 (ip), vehicle: water) is 90 % of control; the T/C under setting [3] is 97 % of control; the T/C under setting [4] was 97 % of control.
Take `Cc1c2ccc3ccccc3c2c[n+]2ccccc12`: the T/C (dose: 5.0 mg/kg/injection, schedule: Q01DX009 (ip), vehicle: saline with Tween-80) is 118 % of control; the T/C (dose: 5.0 mg/kg/injection, schedule: Q04DX003 (ip), vehicle: saline with Tween-80) is 108 % of control; the T/C (dose: 10.0 mg/kg/injection, schedule: Q01DX009 (ip), vehicle: saline with Tween-80) was 86 % of control; the T/C (dose: 10.0 mg/kg/injection, schedule: Q04DX003 (ip), vehicle: saline with Tween-80) is 108 % of control; the T/C (dose: 20.0 mg/kg/injection, schedule: Q04DX003 (ip), vehicle: saline with Tween-80) was 116 % of control.
As for `N=C(N)c1cn(C2OC(CO)C(O)C2O)c2ncnc(N)c12` (configuration not stated), the T/C (dose: 0.44 mg/kg/injection, schedule: Q01DX009 (ip), vehicle: saline) is 156 % of control; the T/C (dose: 0.44 mg/kg/injection, schedule: Q04DX003 (ip), vehicle: saline) was 102 % of control; the T/C (dose: 0.66 mg/kg/injection, schedule: Q01DX009 (ip), vehicle: saline) was 164 % of control; the T/C (dose: 0.66 mg/kg/injection, schedule: Q04DX003 (ip), vehicle: saline) is 109 % of control; the T/C (dose: 1.0 mg/kg/injection, schedule: Q01DX009 (ip), vehicle: Klucel (hydroxypropylcellulose) (HPC)) is 160 % of control; the T/C (dose: 1.0 mg/kg/injection, schedule: Q01DX009 (ip), vehicle: saline) was 162 % of control. The T/C by setting is: (dose: 1.0 mg/kg/injection, schedule: Q04DX003 (ip), vehicle: saline) 100 % of control; (dose: 1.5 mg/kg/injection, schedule: Q01DX009 (ip), vehicle: saline) 173 % of control; (dose: 3.13 mg/kg/injection, schedule: Q01DX009 (ip), vehicle: saline) 202 % of control; (dose: 6.25 mg/kg/injection, schedule: Q04DX003 (ip), vehicle: saline) 154 % of control; (dose: 8.0 mg/kg/injection, schedule: Q01DX009 (ip), vehicle: Klucel (hydroxypropylcellulose) (HPC)) 90 % of control and 105 % of control; (dose: 12.5 mg/kg/injection, schedule: Q01DX009 (ip), vehicle: saline) 86 % of control. Besides, the T/C (dose: 12.5 mg/kg/injection, schedule: Q04DX003 (ip), vehicle: saline) was 177 % of control; the T/C (dose: 16.5 mg/kg/injection, schedule: Q04DX003 (ip), vehicle: saline) was 159 % of control and 181 % of control; the T/C (dose: 25.0 mg/kg/injection, schedule: Q04DX003 (ip), vehicle: saline) is 181 % of control and 190 % of control; the T/C (dose: 37.5 mg/kg/injection, schedule: Q04DX003 (ip), vehicle: saline) is 181 % of control.
